Data as given in patent EP4678644A1, “SUBSTITUTED DIHYDROTHIENOPYRIMIDINE COMPOUND, PREPARATION METHOD THEREFOR, AND USE THEREOF” (Shanghai Yidi Biotechnology Co., Ltd., priority 2023, dated 2024).
Blank lines part the entries; values can stand above or below the molecule they belong to.

Experiments:
PDE4B2 [1] = biological target: T1, PDE4B2 (Homo sapiens, UniProt Q07343); assay: PDE4B2 enzyme experiment (AMP-glo, cAMP substrate); format: biochemical
T1 construct: expressed in transfected cells; host or cells: Flp-In-293 (Flpin-293-PDE4B2 [sic])

PDE4D2 = PDE4D2 (Homo sapiens, UniProt Q08499); assay: PDE4D2 enzyme experiment (AMP-glo, cAMP substrate); format: biochemical; conditions: read-out: PDE4D2 IC50 Binding
Description: Inhibition rate % ^= (1 - (RLUpositive control - RLUcompound)/(RLUpositive control - RLUnegative control)) * 100.

PDE4B2 [2] = biological target: T1, PDE4B2; assay: PDE4B2 cell experiment (cAMP, Eu-cAMP tracer / Ulight-anti-cAMP); format: cell-based; conditions: Flpin-293-PDE4B2 cells, Foskolin

Chain of PDE4D2 (Q08499 303-809 limits assumed): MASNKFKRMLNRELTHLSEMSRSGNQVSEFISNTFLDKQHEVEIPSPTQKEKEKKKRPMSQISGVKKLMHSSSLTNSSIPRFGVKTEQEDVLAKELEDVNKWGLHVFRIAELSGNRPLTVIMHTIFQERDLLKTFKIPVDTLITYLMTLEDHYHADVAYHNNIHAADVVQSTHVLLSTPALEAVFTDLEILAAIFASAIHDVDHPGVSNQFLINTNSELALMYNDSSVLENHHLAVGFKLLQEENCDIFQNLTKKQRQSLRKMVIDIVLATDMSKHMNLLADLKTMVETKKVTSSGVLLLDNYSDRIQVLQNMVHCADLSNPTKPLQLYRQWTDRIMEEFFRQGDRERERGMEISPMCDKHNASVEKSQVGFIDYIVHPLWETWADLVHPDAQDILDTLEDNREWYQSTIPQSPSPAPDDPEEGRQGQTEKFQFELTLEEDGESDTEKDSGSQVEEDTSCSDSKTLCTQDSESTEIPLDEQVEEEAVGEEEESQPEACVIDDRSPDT
T1 sequence (Q07343 1-564 isoform Q07343-2): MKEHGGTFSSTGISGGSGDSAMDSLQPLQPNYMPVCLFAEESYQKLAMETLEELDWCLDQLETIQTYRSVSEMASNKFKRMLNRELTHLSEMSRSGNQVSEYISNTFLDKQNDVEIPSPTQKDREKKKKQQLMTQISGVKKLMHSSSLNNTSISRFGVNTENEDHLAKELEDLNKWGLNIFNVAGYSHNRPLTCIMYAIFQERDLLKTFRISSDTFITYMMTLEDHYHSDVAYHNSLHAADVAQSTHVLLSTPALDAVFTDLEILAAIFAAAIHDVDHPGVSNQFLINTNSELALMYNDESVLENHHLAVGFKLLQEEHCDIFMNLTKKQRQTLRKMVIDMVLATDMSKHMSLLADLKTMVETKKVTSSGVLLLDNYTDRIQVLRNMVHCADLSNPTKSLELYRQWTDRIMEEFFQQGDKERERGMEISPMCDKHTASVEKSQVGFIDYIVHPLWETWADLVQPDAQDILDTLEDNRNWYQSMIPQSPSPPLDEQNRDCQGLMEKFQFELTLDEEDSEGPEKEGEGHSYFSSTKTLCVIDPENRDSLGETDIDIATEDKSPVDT

IC50 (PDE4B2 [1]): 2.71 nM
IC50 (PDE4D2): 7.25 nM
IC50 (PDE4B2 [2]): 29.6 nM
SMILES: [O-][S@+]1CCc2nc(N3CCc4nn5cc(Cl)cnc5c4C3)nc(NC3(CO)CCC3)c21 [Compound 4]

IC50 (PDE4D2): 0.089 nM
SMILES: Cn1nccc1-c1ccc2c(c1)CCN(c1nc3c(c(NC4(CO)CCC4)n1)[S@+]([O-])CC3)C2 [Compound 76, (R)-4-((1-(hydroxymethyl)cyclobutyl)amino)-2-(6-(1-methyl-1H-pyrazol-5-yl)-3,4-dihydroisoquinolin-2(1H)-yl)-6,7-dihydrothieno[3,2-d]pyrimidine 5-oxide]

IC50 (PDE4D2): 2.94 nM
SMILES: Cn1ncc2c3c(cnc21)CN(c1nc2c(c(NC4(CO)CCC4)n1)[S@+]([O-])CC2)CC3 [Compound 104, (R)-4-((1-(hydroxymethyl)cyclobutyl)amino)-2-(3-methyl-3,6,8,9-tetrahydro-7H-pyrazolo[3,4-c][2,7]naphthyridin-7-yl)-6,7-dihydrothieno[3,2-d]pyrimidine 5-oxide]

IC50 (PDE4D2): 3.38 nM
SMILES: [O-][S@+]1CCc2nc(N3CCc4nc(N5CCCC5)ccc4C3)nc(NC3(CO)CCC3)c21 [Compound 135, (R)-4-((1-(hydroxymethyl)cyclobutyl)amino)-2-(2-(pyrrolidin-1-yl)-7,8-dihydro-1,6-naphthyridin-6(5H)-yl)-6,7-dihydrothieno[3,2-d]pyrimidine 5-oxide]

IC50 (PDE4D2): 6.38 nM
SMILES: [O-][S@+]1CCc2nc(N3CCc4c(ccc(N5CCCC5)c4F)C3)nc(NC3(CO)CCC3)c21 [Compound 180, (R)-2-(5-fluoro-6-(pyrrolidin-1-yl)-3,4-dihydroisoquinolin-2(1H)-yl)-4-((1-(hydroxymethyl)cyclobutyl)amino)-6,7-dihydrothieno[3,2-d]pyrimidine 5-oxide]

IC50 (PDE4D2): 0.876 nM
SMILES: [O-][S@+]1CCc2nc(N3CCc4cc(N5CCCC5)c(F)cc4C3)nc(NC3(CO)CCC3)c21 [Compound 181, (R)-2-(7-fluoro-6-(pyrrolidin-1-yl)-3,4-dihydroisoquinolin-2(1H)-yl)-4-((1-(hydroxymethyl)cyclobutyl)amino)-6,7-dihydrothieno[3,2-d]pyrimidine 5-oxide]

IC50 (PDE4D2): 1.88 nM
SMILES: [O-][S@+]1CCc2nc(N3CCc4nc(N5CCCC5)cnc4C3)nc(NC3(CO)CCC3)c21 [Compound 218, (R)-4-((1-(hydroxymethyl)cyclobutyl)amino)-2-(2-(pyrrolidin-1-yl)-7,8-dihydropyrido[3,4-b]pyrazin-6(5H)-yl)-6,7-dihydrothieno[3,2-d]pyrimidine 5-oxide]

The remaining lines, values behind:

SMILES: [O-][S+]1CCc2nc(N3Cc4nn5cc(Cl)cnc5c4C3)nc(NC3(CO)CCC3)c21 (stereo not drawn) [Compound 2]
IC50 (PDE4B2 [1]): 19.3 nM
IC50 (PDE4D2): 60.1 nM
IC50 (PDE4B2 [2]): 418 nM

SMILES: [O-][S@+]1CCc2nc(N3CCn4c(nc5ccc(Cl)cc54)C3)nc(NC3(CO)CCC3)c21 [Compound 6, (R)-2-(7-chloro-3,4-dihydrobenzo[4,5]imidazo[1,2-a]pyrazin-2(1H)-yl)-4-((1-(hydroxymethyl)cyclobutyl)amino)-6,7-dihydrothieno[3,2-d]pyrimidine 5-oxide]
IC50 (PDE4B2 [1]): 0.41 nM
IC50 (PDE4D2): 0.473 nM
IC50 (PDE4B2 [2]): 8.2 nM

SMILES: [O-][S@+]1CCc2nc(N3CC[C@@H]4c5ccc(Cl)cc5OC[C@H]4C3)nc(NC3(CO)CCC3)c21 [Compound 14, (R)-2-((4aR,10bS)-8-chloro-1,4a,5,10b-tetrahydro-2H-chromeno[3,4-c]pyridin-3(4H)-yl)-4-((1-(hydroxymethyl)cyclobutyl)amino)-6,7-dihydrothieno[3,2-d]pyrimidine 5-oxide]
IC50 (PDE4B2 [1]): 0.21 nM
IC50 (PDE4D2): 1.08 nM
IC50 (PDE4B2 [2]): 16.5 nM

SMILES: C[C@@H]1c2ccc(Cl)cc2CCN1c1nc2c(c(NC3(CO)CCC3)n1)[S@+]([O-])CC2 [Compound 29]
IC50 (PDE4B2 [1]): 0.54 nM
IC50 (PDE4D2): 1.79 nM

SMILES: O=C1OCCN1c1ccc2c(c1)CCN(c1nc3c(c(NC4(CO)CCC4)n1)[S@+]([O-])CC3)C2 [Compound 80, (R)-3-(2-(4-((1-(hydroxymethyl)cyclobutyl)amino)-5-oxido-6,7-dihydrothieno[3,2-d]pyrimidin-2-yl)-1,2,3,4-tetrahydroisoquinolin-6-yl)oxazolidin-2-one]
IC50 (PDE4D2): 0.56 nM
